Test results taken from patent US6525001B1, “Substituted pyrimidine and pyridine herbicides” (Mid-American Commercialization Corporation, priority 1997, dated 2003).

Assays:
Format in all cases: in vivo
[1] = tested on: cotton (Gossypium hirsutum); assay: Test C; parameters: key: 0 was no effect; 100 was complete control
[2] = tested on: eastern black nightshade (Solanum ptycanthum); assay: Test C; parameters: key: 0 was no effect; 100 was complete control
[3] = tested on: johnsongrass (Sorghum halepense); assay: Test C; parameters: key: 0 was no effect; 100 was complete control
soybean (Glycine max) = assay: Test C; parameters: key: 0 was no effect; 100 was complete control
[4] = tested on: ivyleaf speedwell (Veronica hederaefolia); assay: Test D; parameters: key: 0 is no effect; 100 is complete control; conditions: PREEMERGENCE
[5] = tested on: blackgrass (Alopecurus myosuroides); assay: Test D; conditions: PREEMERGENCE
kochia (Kochia scoparia) = assay: Test D; conditions: PREEMERGENCE
rape (Brassica napus) = assay: Test D; parameters: key: 0 is no effect; 100 is complete control; conditions: PREEMERGENCE
[6] = tested on: winter wheat (Triticum aestivum); assay: Test D; conditions: PREEMERGENCE
[7] = tested on: alexandergrass (Brachiaria plantaginea); assay: Test E pre-/postemergence/post directed; parameters: key: 0 is no effect; 100 is complete control; conditions: PREEMERGENCE
Outline: (§1)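 Greenhouse pot-grown plants; compound in non-phytotoxic solvent with surfactant applied preemergence to soil within one day of planting, postemergence at two to four leaf stage (three to twenty cm), or post-directed to plant base and soil. Visual injury rated 13 to 21 days after application, 0 (none) to 100 (complete control).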

[8] = tested on: pitted morningglory (Ipomoea lacunosa); assay: Test E pre-/postemergence/post directed; parameters: key: 0 is no effect; 100 is complete control; conditions: PREEMERGENCE, Rate 250 g/ha
Outline: as §1

B. signalgrass = assay: Test E pre-/postemergence/post directed; parameters: key: 0 is no effect; 100 is complete control; conditions: PREEMERGENCE
Outline: as §1

[9] = tested on: Spanishneedles (Bidens bipinnata); assay: Test E pre-/postemergence/post directed; parameters: key: 0 is no effect; 100 is complete control; conditions: PREEMERGENCE, Rate 250 g/ha
Outline: as §1

[10] = tested on: annual bluegrass (Poa annua); assay: Test E pre-/postemergence/post directed; parameters: key: 0 is no effect; 100 is complete control; conditions: PREEMERGENCE
Outline: as §1

[11] = tested on: arrowleaf sida (Sida rhombifolia); assay: Test E pre-/postemergence/post directed; parameters: key: 0 is no effect; 100 is complete control; conditions: PREEMERGENCE
Outline: as §1

[12] = tested on: common chickweed (Stellaria media); assay: Test E pre-/postemergence/post directed; parameters: key: 0 is no effect; 100 is complete control; conditions: PREEMERGENCE
Outline: as §1

[13] = tested on: green foxtail (Setaria viridis); assay: Test E pre-/postemergence/post directed; parameters: key: 0 is no effect; 100 is complete control; conditions: PREEMERGENCE
Outline: as §1

[14] = tested on: johnson grass (Sorghum halepense); assay: Test E pre-/postemergence/post directed; parameters: key: 0 is no effect; 100 is complete control; conditions: Rate 250 g/ha
Outline: as §1

[15] = tested on: leafy spurge (Euphorbia esula); assay: Test E pre-/postemergence/post directed; parameters: key: 0 is no effect; 100 is complete control; conditions: PREEMERGENCE
Outline: as §1

[16] = tested on: quackgrass (Agropyron repens); assay: Test E pre-/postemergence/post directed; parameters: key: 0 is no effect; 100 is complete control; conditions: PREEMERGENCE
Outline: as §1

[17] = tested on: sandbur (Cenchrus echinatus); assay: Test E pre-/postemergence/post directed; parameters: key: 0 is no effect; 100 is complete control; conditions: PREEMERGENCE, Rate 250 g/ha
Outline: as §1

CCc1cnc(-n2ccc(C(F)(F)F)n2)nc1Cc1cccc(C(F)(F)F)c1 [Compound 46]
Plant response rating, Cotton ([1]; PREEMERGENCE, Rate 35 g/ha): 0
Plant response rating, Cotton ([1]; PREEMERGENCE, Rate 70 g/ha): 5
Plant response rating, Cotton ([1]; PREEMERGENCE, Rate 140 g/ha): 40
Plant response rating, E. blacknightsh ([2]; PREEMERGENCE, Rate 35 g/ha): 80
Plant response rating, E. blacknightsh ([2]; PREEMERGENCE, Rate 70 g/ha): 100
Plant response rating, E. blacknightsh ([2]; PREEMERGENCE, Rate 140 g/ha): 100
Plant response rating, Johnsongrass ([3]; PREEMERGENCE, Rate 35 g/ha): 5
Plant response rating, Johnsongrass ([3]; PREEMERGENCE, Rate 70 g/ha): 45
Plant response rating, Johnsongrass ([3]; PREEMERGENCE, Rate 140 g/ha): 50
Plant response rating, Soybean (soybean (Glycine max); PREEMERGENCE, Rate 35 g/ha): 0
Plant response rating, Soybean (soybean (Glycine max); PREEMERGENCE, Rate 70 g/ha): 0
Plant response rating, Soybean (soybean (Glycine max); PREEMERGENCE, Rate 140 g/ha): 20
Plant response rating, Ivyleaf speedwe ([4]; Rate 31 g/ha): 100
Plant response rating, Ivyleaf speedwe ([4]; Rate 62 g/ha): 100
Plant response rating, Blackgrass ([5]; Rate 31 g/ha): 10
Plant response rating, Blackgrass ([5]; Rate 62 g/ha): 60
Plant response rating, Kochia (kochia (Kochia scoparia); Rate 31 g/ha): 60
Plant response rating, Kochia (kochia (Kochia scoparia); Rate 62 g/ha): 60
Plant response rating, Rape (rape (Brassica napus); Rate 31 g/ha): 50
Plant response rating, Rape (rape (Brassica napus); Rate 62 g/ha): 100
Plant response rating, Wheat (winter) ([6]; Rate 31 g/ha): 40
Plant response rating, Wheat (winter) ([6]; Rate 62 g/ha): 2

Cc1cnc(-c2ccc(C(F)(F)F)cc2)nc1Cn1ccc(C(F)(F)F)n1 [compound 9]
Plant response rating, Cotton ([1]; POSTEMERGENCE, Rate 35 g/ha): 70
Plant response rating, Cotton ([1]; POSTEMERGENCE, Rate 70 g/ha): 80
Plant response rating, Cotton ([1]; POSTEMERGENCE, Rate 140 g/ha): 90
Plant response rating, Cotton ([1]; PREEMERGENCE, Rate 35 g/ha): 10
Plant response rating, Cotton ([1]; PREEMERGENCE, Rate 70 g/ha): 35
Plant response rating, Cotton ([1]; PREEMERGENCE, Rate 140 g/ha): 50
Plant response rating, E. blacknightsh ([2]; POSTEMERGENCE, Rate 35 g/ha): 100
Plant response rating, E. blacknightsh ([2]; POSTEMERGENCE, Rate 140 g/ha): 100
Plant response rating, E. blacknightsh ([2]; PREEMERGENCE, Rate 35 g/ha): 95
Plant response rating, E. blacknightsh ([2]; PREEMERGENCE, Rate 70 g/ha): 100
Plant response rating, E. blacknightsh ([2]; PREEMERGENCE, Rate 140 g/ha): 95
Plant response rating, Johnsongrass ([3]; POSTEMERGENCE, Rate 35 g/ha): 10
Plant response rating, Johnsongrass ([3]; POSTEMERGENCE, Rate 140 g/ha): 50
Plant response rating, Johnsongrass ([3]; PREEMERGENCE, Rate 35 g/ha): 65
Plant response rating, Johnsongrass ([3]; PREEMERGENCE, Rate 70 g/ha): 85
Plant response rating, Johnsongrass ([3]; PREEMERGENCE, Rate 140 g/ha): 95
Plant response rating, Soybean (soybean (Glycine max); POSTEMERGENCE, Rate 35 g/ha): 40
Plant response rating, Soybean (soybean (Glycine max); POSTEMERGENCE, Rate 70 g/ha): 50
Plant response rating, Soybean (soybean (Glycine max); POSTEMERGENCE, Rate 140 g/ha): 50
Plant response rating, Soybean (soybean (Glycine max); PREEMERGENCE, Rate 35 g/ha): 20
Plant response rating, Soybean (soybean (Glycine max); PREEMERGENCE, Rate 70 g/ha): 20
Plant response rating, Soybean (soybean (Glycine max); PREEMERGENCE, Rate 140 g/ha): 25
Plant response rating, Alexandergrass ([7]; Rate 250 g/ha): 100
Plant response rating, P. morninglory [8]: 100

Cc1cnc(-c2ccc(C(F)(F)F)cc2)nc1Cc1cccc(OC(F)(F)F)c1 [Compound 15]
Plant response rating, Cotton ([1]; PREEMERGENCE, Rate 35 g/ha): 5
Plant response rating, Cotton ([1]; PREEMERGENCE, Rate 70 g/ha): 10
Plant response rating, Cotton ([1]; PREEMERGENCE, Rate 140 g/ha): 10
Plant response rating, E. blacknightsh ([2]; PREEMERGENCE, Rate 35 g/ha): 70
Plant response rating, E. blacknightsh ([2]; PREEMERGENCE, Rate 70 g/ha): 95
Plant response rating, E. blacknightsh ([2]; PREEMERGENCE, Rate 140 g/ha): 95
Plant response rating, Johnsongrass ([3]; PREEMERGENCE, Rate 35 g/ha): 35
Plant response rating, Johnsongrass ([3]; PREEMERGENCE, Rate 70 g/ha): 85
Plant response rating, Johnsongrass ([3]; PREEMERGENCE, Rate 140 g/ha): 100
Plant response rating, Soybean (soybean (Glycine max); PREEMERGENCE, Rate 35 g/ha): 0
Plant response rating, Soybean (soybean (Glycine max); PREEMERGENCE, Rate 70 g/ha): 10
Plant response rating, Soybean (soybean (Glycine max); PREEMERGENCE, Rate 140 g/ha): 10
Plant response rating, B. signalgrass (B. signalgrass; Rate 32 g/ha): 35
Plant response rating, B. signalgrass (B. signalgrass; Rate 64 g/ha): 60
Plant response rating, B. signalgrass (B. signalgrass; Rate 125 g/ha): 95
Plant response rating, B. signalgrass (B. signalgrass; Rate 250 g/ha): 98
Plant response rating, Spanishneedles [9]: 100
Plant response rating, Alexandergrass ([7]; Rate 125 g/ha): 100
Plant response rating, Alexandergrass ([7]; Rate 250 g/ha): 100
Plant response rating, A. bluegrass ([10]; Rate 32 g/ha): 100
Plant response rating, A. bluegrass ([10]; Rate 64 g/ha): 100
Plant response rating, A. bluegrass ([10]; Rate 125 g/ha): 100
Plant response rating, A. bluegrass ([10]; Rate 250 g/ha): 100
Plant response rating, Arrowleaf sida ([11]; Rate 32 g/ha): 65
Plant response rating, Arrowleaf sida ([11]; Rate 64 g/ha): 50
Plant response rating, Arrowleaf sida ([11]; Rate 125 g/ha): 100
Plant response rating, Arrowleaf sida ([11]; Rate 250 g/ha): 100
Plant response rating, Com. chickweed ([12]; Rate 32 g/ha): 65
Plant response rating, Com. chickweed ([12]; Rate 64 g/ha): 85
Plant response rating, Com. chickweed ([12]; Rate 125 g/ha): 98
Plant response rating, Com. chickweed ([12]; Rate 250 g/ha): 100
Plant response rating, Green foxtail ([13]; Rate 32 g/ha): 100
Plant response rating, Green foxtail ([13]; Rate 64 g/ha): 100
Plant response rating, Green foxtail ([13]; Rate 125 g/ha): 100
Plant response rating, Green foxtail ([13]; Rate 250 g/ha): 100
Plant response rating, Johnsongrass ([14]; POSTEMERGENCE): 100
Plant response rating, Johnsongrass ([14]; PREEMERGENCE): 100
Plant response rating, Leafy spurge ([15]; Rate 32 g/ha): 35
Plant response rating, Leafy spurge ([15]; Rate 64 g/ha): 65
Plant response rating, Leafy spurge ([15]; Rate 250 g/ha): 98
Plant response rating, Quackgrass ([16]; Rate 32 g/ha): 65
Plant response rating, Quackgrass ([16]; Rate 64 g/ha): 65
Plant response rating, Quackgrass ([16]; Rate 125 g/ha): 95
Plant response rating, Quackgrass ([16]; Rate 250 g/ha): 95
Plant response rating, Sandbur [17]: 100
